Patent US5948807A (priority 1997, dated 1999)
Structures can show the parent of a compound that is named as a salt.

What was measured:
[1] = molecular target: SERT-2, paroxetine binding site on the serotonin transporter (Homo sapiens, UniProt P31645); experiment: biochemical
kappa opioid receptor = kappa opioid receptor (Homo sapiens, UniProt P41145); experiment: biochemical; format: binding
mu opioid receptor = mu opioid receptor (Homo sapiens, UniProt P35372); experiment: biochemical; format: binding
[2] = molecular target: DAT, dopamine transporter (Homo sapiens, UniProt Q01959); experiment: radioligand binding, DAT ([^3 H]WIN35,428); settings: radioligand [^3 H]WIN35,428; racemic; spiroindanamines as hydrochlorides; read-out: Affinity (IC50) DAT ([^3 H]WIN35,428)
serotonin transporter = experiment: binding at serotonin transporter, comparison with SSRIs; settings: vs citalopram, sertraline and fluoxetine
[3] = molecular target: SERT-1, cocaine binding site on the serotonin transporter (Homo sapiens, UniProt P31645); experiment: biochemical
Chain of SERT-1, cocaine binding site on the serotonin transporter (P31645 whole entry): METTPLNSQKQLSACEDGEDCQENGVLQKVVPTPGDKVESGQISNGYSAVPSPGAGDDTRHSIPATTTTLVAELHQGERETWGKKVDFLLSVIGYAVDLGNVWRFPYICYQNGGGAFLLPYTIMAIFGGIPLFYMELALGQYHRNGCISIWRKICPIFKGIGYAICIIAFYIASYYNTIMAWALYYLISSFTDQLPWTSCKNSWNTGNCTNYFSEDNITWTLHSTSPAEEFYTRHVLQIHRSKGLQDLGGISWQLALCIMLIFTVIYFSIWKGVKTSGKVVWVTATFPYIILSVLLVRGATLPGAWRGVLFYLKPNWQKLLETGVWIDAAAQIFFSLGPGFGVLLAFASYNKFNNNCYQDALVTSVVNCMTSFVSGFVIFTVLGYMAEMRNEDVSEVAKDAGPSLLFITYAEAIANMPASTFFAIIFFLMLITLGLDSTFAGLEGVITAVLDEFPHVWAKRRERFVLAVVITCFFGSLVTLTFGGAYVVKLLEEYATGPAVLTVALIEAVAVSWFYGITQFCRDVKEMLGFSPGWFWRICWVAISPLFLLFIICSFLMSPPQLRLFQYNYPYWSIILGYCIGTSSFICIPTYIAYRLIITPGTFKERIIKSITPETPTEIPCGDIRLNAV

Chain of DAT, dopamine transporter (Q01959 whole entry): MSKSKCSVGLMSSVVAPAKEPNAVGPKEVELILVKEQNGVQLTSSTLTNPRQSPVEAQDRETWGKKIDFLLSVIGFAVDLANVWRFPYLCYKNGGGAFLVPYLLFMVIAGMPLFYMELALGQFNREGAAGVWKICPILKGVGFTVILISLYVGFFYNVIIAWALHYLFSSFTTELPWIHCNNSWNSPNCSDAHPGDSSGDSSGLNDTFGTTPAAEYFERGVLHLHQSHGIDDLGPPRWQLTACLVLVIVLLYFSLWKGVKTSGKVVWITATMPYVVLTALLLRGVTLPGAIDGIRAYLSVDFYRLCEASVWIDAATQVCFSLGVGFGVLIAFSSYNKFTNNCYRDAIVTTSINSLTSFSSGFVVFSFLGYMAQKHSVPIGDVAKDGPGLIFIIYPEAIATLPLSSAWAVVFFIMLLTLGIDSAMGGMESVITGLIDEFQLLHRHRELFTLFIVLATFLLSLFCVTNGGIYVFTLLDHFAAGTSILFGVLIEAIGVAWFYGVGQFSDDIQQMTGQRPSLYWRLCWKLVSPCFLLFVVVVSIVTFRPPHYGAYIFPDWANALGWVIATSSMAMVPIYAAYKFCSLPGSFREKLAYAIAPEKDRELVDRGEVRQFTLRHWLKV
Chain of kappa opioid receptor (P41145 whole entry): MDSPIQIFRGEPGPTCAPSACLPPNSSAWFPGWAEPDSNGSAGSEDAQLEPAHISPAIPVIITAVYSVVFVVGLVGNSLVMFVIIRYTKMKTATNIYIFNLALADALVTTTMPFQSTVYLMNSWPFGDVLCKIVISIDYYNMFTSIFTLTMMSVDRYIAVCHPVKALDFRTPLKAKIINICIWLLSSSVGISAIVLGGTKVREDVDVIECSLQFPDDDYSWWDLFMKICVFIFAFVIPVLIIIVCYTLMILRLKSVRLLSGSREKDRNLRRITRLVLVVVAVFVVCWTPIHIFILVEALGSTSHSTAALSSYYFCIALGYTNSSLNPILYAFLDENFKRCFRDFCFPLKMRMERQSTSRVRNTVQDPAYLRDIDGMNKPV
Chain of SERT-2, paroxetine binding site on the serotonin transporter (P31645 whole entry): as the sequence (P31645 whole entry) above
Chain of mu opioid receptor (P35372 whole entry): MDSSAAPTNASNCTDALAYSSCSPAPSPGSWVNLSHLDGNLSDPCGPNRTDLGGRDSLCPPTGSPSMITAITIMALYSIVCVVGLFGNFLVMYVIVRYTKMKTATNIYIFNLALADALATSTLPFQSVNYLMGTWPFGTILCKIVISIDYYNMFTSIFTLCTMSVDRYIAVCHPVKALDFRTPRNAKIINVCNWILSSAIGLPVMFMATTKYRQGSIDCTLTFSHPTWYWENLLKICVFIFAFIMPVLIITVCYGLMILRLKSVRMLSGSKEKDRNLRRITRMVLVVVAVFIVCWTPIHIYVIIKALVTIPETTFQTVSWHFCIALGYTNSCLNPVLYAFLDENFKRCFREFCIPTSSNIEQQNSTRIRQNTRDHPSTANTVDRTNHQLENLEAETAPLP

Compound	IC50 [1] [nM]	affinity at SERT-2 (in words) [1]	IC50 (kappa opioid receptor) [µM]	IC50 (mu opioid receptor) [µM]	IC50 [2] [nM]	affinity for the serotonin transporter relative to SSRIs (serotonin transporter)	IC50 [3] [nM]	affinity for SERT-1 (in words) [3]
c1ccc(C2CC3(CCNC3)c3ccccc32)cc1 (racemic) [Compound 3a, 3-Phenylspiro[indan-1,3'-pyrrolidine]]	2500	moderate to weak affinity	10	0.5	200	comparable to or higher than that of other specific serotonin re-uptake inhibitors (SSRIs)	10	low nanomolar affinity
COc1ccc2c(c1)C1(CC(=O)NC1=O)CC2c1ccc(Cl)c(Cl)c1 (racemic) [Compound 1c, 3-(3,4-Dichlorophenyl)-6-methoxyspiro[indan-1,3'-pyrrolidin]-2',5'-dione]	> 100000	higher affinity for SERT-2 than the basic spiroindanamines 3d and 4a	> 100	100			250	
c1ccc(C2CC3(CCN(CC4CC4)C3)c3ccccc32)cc1 (racemic) [Compound 4a, 1'-Cyclopropylmethyl-3-phenylspiro[indan-1,3'-pyrrolidine] hydrochloride]	2000		1	0.98	2900		2410	
COc1ccc2c(c1)C1(CCNC1)CC2c1ccc(Cl)c(Cl)c1 (racemic) [Compound 3c, 3-(3,4-Dichlorophenyl)-6-methoxyspiro[indan-1,3'-pyrrolidine]]	400	moderate to weak affinity	80	5	150	comparable to or higher than that of other specific serotonin re-uptake inhibitors (SSRIs)	2	low nanomolar affinity
Oc1ccc2c(c1)C1(CCNC1)CC2c1ccc(Cl)c(Cl)c1 (racemic) [Compound 3d, 3-(3,4-Dichlorophenyl)-6-hydroxyspiro[indan-1,3'-pyrrolidine]]	300		1.52	2.9	730		750	
O=C1C[C@@]2(C[C@@H](c3ccccc3)c3ccccc32)C(=O)N1 (relative stereo) [Compound 1a, cis-3-Phenylspiro[indan-1,3'-pyrrolidine]-2',5'-dione]	> 100000		> 100	100			26700	
